pKd: −log10 of the molar value.
Key:
Assay in all cases: Cu(II)-VBIDA affinity for the tag (Table 1)
Assay type in all cases: binding
Details in all cases: r^2 ≈ 0.98
[1] = molecular target: green fluorescent protein (GFP) variant GFP12, tag MEFHSVGLH, SEQ ID NO: 6
From the text: (§1) In this figure the kD data is given in millimolar not micromolar units.

[2] = molecular target: green fluorescent protein (GFP) variant GFP24, tag MEFHLRARH, SEQ ID NO: 7
From the text: as §1

[3] = molecular target: green fluorescent protein (GFP) variant GFP2, tag MEFHSVGMH, SEQ ID NO: 3
From the text: as §1

[4] = molecular target: green fluorescent protein (GFP) variant GFP29, tag MEFHHSLVH, SEQ ID NO: 12
From the text: as §1

[5] = molecular target: green fluorescent protein (GFP), n-GFP (native, N-terminus MEFELGT, SEQ ID NO: 1)
From the text: as §1

[6] = molecular target: green fluorescent protein (GFP) variant GFP28, tag MEFHITGHH, SEQ ID NO: 11
From the text: as §1

[7] = molecular target: green fluorescent protein (GFP) variant GFP25, tag MEFHRPMRH, SEQ ID NO: 8
From the text: as §1
(§2) These values are suitably low for such tags to be used in a separation process with binding of target at high enough affinity to allow for ease of washing and recovery.

[8] = molecular target: green fluorescent protein (GFP) variant GFP27, tag MEFHWVARH, SEQ ID NO: 10
From the text: as §1, §2

[9] = molecular target: green fluorescent protein (GFP) variant GFP30, tag MEFHAHHLH, SEQ ID NO: 13
From the text: as §1, §2

[10] = molecular target: green fluorescent protein (GFP), 6His-GFP, tag […], SEQ ID NO: 14
From the text: as §1, §2

SMILES: C=Cc1ccc(CN(CC(=O)O)CC(=O)O)cc1.[Cu+2] [Cu(II)-VBIDA, N-(4-vinyl)-benzyl iminodiacetic acid]
- pKd [1]: 3.70
- pKd [2]: 3.82
- pKd [3]: 2.92
- pKd [4]: 4.00
- pKd [5]: 2.77
- pKd [6]: 3.96
- pKd [7]: 3.85
- pKd [8]: 3.92
- pKd [9]: 4.05
- pKd [10]: 4.15

Reference: patent US20110053225A1, “MULTI[…]” (GE […]-SCIENCES AB, priority 2008, published 2011)
